Test results: ChEMBL document CHEMBL1158690, “Characterization of lipophilic pentasaccharides from beach morning glory (Ipomoea pes-caprae)” (2005)

Legend:
Format in all cases: functional
[1] = Cytotoxicity against human nasopharyngeal carcinoma cells; details: Nasopharyngeal carcinoma cell, read-out: ED50 (the source's name)
[2] = Cytotoxicity against human colon carcinoma cells; details: Colon carcinoma cell, read-out: ED50 (the source's name)
[3] = Cytotoxicity against human squamous cervical carcinoma cells; details: read-out: ED50 (the source's name)
[4] = Cytotoxicity against human ovarian carcinoma cells; details: Ovarian carcinoma cell, read-out: ED50 (the source's name)

Measured: EC50

CCCCCCCCCCCC(=O)O[C@H]1[C@H](O[C@@H]2[C@H]3OC(=O)CCCCCCCCC[C@H](CCCCC)O[C@@H]4O[C@H](C)[C@H](O)[C@H](O)[C@H]4O[C@H](O[C@H]2C)[C@@H]3O)O[C@@H](C)[C@H](O[C@@H]2O[C@@H](C)[C@H](OC(=O)[C@@H](C)CC)[C@@H](O)[C@H]2O)[C@H]1O[C@@H]1O[C@@H](C)[C@H](O)[C@@H](O)[C@H]1O [PESCAPREIN III]
5 µg/mL: all assays above

CCCCCCCCCCCC(=O)O[C@H]1[C@H](O[C@@H]2[C@H]3OC(=O)CCCCCCCCC[C@H](CCCCC)O[C@@H]4O[C@H](C)[C@H](O)[C@H](O)[C@H]4O[C@H](O[C@H]2C)[C@@H]3O)O[C@@H](C)[C@H](O[C@@H]2O[C@@H](C)[C@H](OC(=O)C(C)C)[C@@H](O)[C@H]2O)[C@H]1O[C@@H]1O[C@@H](C)[C@H](O)[C@@H](O)[C@H]1O [PESCAPREIN II]
5 µg/mL: all assays above

CCCCCCCCCCCC(=O)O[C@H]1[C@H](O[C@@H]2[C@H]3OC(=O)CCCCCCCCC[C@H](CCCCC)O[C@@H]4O[C@H](C)[C@H](O)[C@H](O)[C@H]4O[C@H](O[C@H]2C)[C@@H]3O)O[C@@H](C)[C@H](O[C@@H]2O[C@@H](C)[C@H](OC(=O)CCCCC)[C@@H](O)[C@H]2O)[C@H]1O[C@@H]1O[C@@H](C)[C@H](O)[C@@H](O)[C@H]1O [PESCAPREIN IV]
5 µg/mL: all assays above

CCCCCCCCCCCC(=O)O[C@H]1[C@H](O[C@@H]2[C@H]3OC(=O)CCCCCCCCC[C@H](CCCCC)O[C@@H]4O[C@H](C)[C@H](O)[C@H](O)[C@H]4O[C@H](O[C@H]2C)[C@@H]3O)O[C@@H](C)[C@H](O[C@@H]2O[C@@H](C)[C@H](O)[C@@H](O)[C@H]2O)[C@H]1O[C@@H]1O[C@@H](C)[C@H](O)[C@@H](O)[C@H]1O [PESCAPREIN I]
5 µg/mL: all assays above

CCCCCCCCCCCC(=O)O[C@H]1[C@H](O[C@@H]2[C@@H](O)[C@@H](O)[C@H](O[C@H]3[C@H](O[C@@H](CCCCC)CCCCCCCCCC(=O)OC)O[C@H](C)[C@H](O)[C@@H]3O)O[C@H]2C)O[C@@H](C)[C@H](O[C@@H]2O[C@@H](C)[C@H](O)[C@@H](O)[C@H]2O)[C@H]1O[C@@H]1O[C@@H](C)[C@H](O)[C@@H](O)[C@H]1O [PESCAPROSIDE A]
5 µg/mL: all assays above

CCCCCCCCCC(=O)O[C@H]1[C@H](O[C@@H]2[C@H]3OC(=O)CCCCCCCCC[C@H](CCCCC)O[C@@H]4O[C@H](C)[C@H](O)[C@H](O)[C@H]4O[C@H](O[C@H]2C)[C@@H]3O)O[C@@H](C)[C@H](O[C@@H]2O[C@@H](C)[C@H](OC(=O)[C@@H](C)CC)[C@@H](O)[C@H]2O)[C@H]1O[C@@H]1O[C@@H](C)[C@H](O)[C@@H](O)[C@H]1O [STOLONIFERIN III]
5 µg/mL: all assays above
